The values below are quoted from earlier work in US7932388B2, “Isotopically enriched N-substituted piperazines and methods for the preparation thereof” (DH Technologies Development Pte. Ltd., priority 2004, dated 2011).

The conditions of the data set: alcohol (leaving group) of the trifluoroacetate ester; no method or conditions printed.

For the substance N-hydroypyrrolidinone [NHP], the pKa is recorded as 9.38.

Broadly, the pKa is the pH at which an ionisable group is half protonated.
